Where “and” joins values, the source holds several entries; their conditions need not be identical. Equal entries are not always repeated. Entries after “also recorded” stand apart in the source; their conditions may differ. Where two headings read alike, the source gives them in different places.
What was measured:
[1] = biological target: T1, γ-secretase cleavage of APP (Homo sapiens, UniProt P49768); experiment: Aβ in conditioned media of APP expressing HEK293 cells transfected with NotchΔE, ELISA; assay type: cell-based; conditions: for IC50: HEK293, 8 hr treatment; for Aβ levels in cultured cells: high doses
T1 construct: endogenous in cells; host or cells: HEK293 stably expressing Swedish mutant human APP695, transiently transfected with NotchΔE
Method: Since many compounds could behave differently in vitro versus in culture cells, cpd E and DAPT were tested in cultured cells (Fig. 2). HEK293 cells stably expressing Swedish mutant APP were transiently transfected with NotchΔE, a truncated Notch construct that is readily cleaved by the γ-secretase to generate NICD for downstream signaling transduction. NotchΔE expressing cells were treated with increasing concentrations of DAPT or cpd E. Cell lysates were subjected to WB for measuring the generation of NICD (Fig. 2A), and conditioned media were collected for Aβ measurement by ELISA (Fig. 2B,C).
Figure 2 Generation of NICD and Aβ from NotchΔE and APP expressing cells. A. Twenty four hrs after the construct carrying NotchΔE was transfected into APP expressing HEK293 cells, cells were treated with DAPT or cpd E for 8 hr and lysed for WB with antibody 1744 to specifically detect the N-terminus of NICD. Bottom panel, the antibody against α-tubulin was applied to normalize the amounts of lysates used for WB. B. Levels of NICD determined by WB were quantified by densitometry (dotted line). Levels of Aβ generated from the γ-secretase cleavage of APP in the presence of DAPT were determined by ELISA. […] C. NICD (dotted line) and Aβ (solid line) production from cpd E-treated cells were compared. […] D. A luciferase reporter construct driven by HES1 promoter was transfected into HEK293 cells followed by treatment with cpd E or DAPT.
Sandwich ELISAs for Aβ were performed as described. The capture antibodies, 2G3 (to Aβ residues 33–40) and 4G8 (to Aβ residues 17–24), were used for Aβ40 and Aβ total species, respectively. The detecting antibodies were biotinylated 82E1 (to Aβ residues 1–16) for Aβ1–40/total or biotinylated 266 for Aβx-40 species. The use of mid-region and C-terminal capturing antibodies and N-terminal detecting antibody for chimeric "Notch-Aβ-like" peptide (Nβ*) has been documented. The combination of several capture/detecting antibodies are use to measure Aβ and Nβ* derived from different precursors. The capture antibody 2G3 and detecting antibody 82E1 were used for measuring Nβ* from APP-α-Notch expressing cells. Since the APP-α-NOTCH is the fusion protein with its juxtamembrane portion of the APP ectodomain (the α-secretase cleavage region) replaced by the corresponding sequence in Notch, the epitopes in APP sequence could still be recognized by 2G3 (C-terminus) and 82E1 (N-terminus). […]
Human embryonic kidney (HEK) 293 cells stably expressing Swedish mutant human APP695 were transfected with different cDNA constructs and maintained in 200 μg/ml G418 (Invitrogen, Carlsbad, CA). […] Conditioned media were collected for ELISA, and cell lysates were analyzed by Western blot as described. […]

[2] = biological target: T2, γ-secretase cleavage of Notch N100-Flag (Homo sapiens, UniProt P49768); experiment: In vitro γ-secretase activity assay, NICD generated from N100-Flag, Western blot densitometry; assay type: biochemical; conditions: for NICD generation in vitro, dose response: N100-Flag, increasing concentrations
T2 construct: substrate made in E. coli
Method: To characterize the direct effect of two γ-secretase inhibitors cpd E and DAPT on APP/Notch cleavage, a conventional in vitro γ-secretase assay to quantify their inhibitory potency was used. The incubation of γ-secretase complex with purified substrates at 37°C for 4 hr was followed by Western Blot (WB) to determine the quantity of newly generated NICD. A newly generated band that corresponds to the predicted size of the NICD-Flag was detected (Fig. 1A and 1B).
Figure 1 Generation of NICD and Aβ from purified APP and Notch substrate C100 and N100 in an in vitro γ-secretase activity assay. The E. coli generated APP- and Notch-based, 100-residue γ-secretase substrates C100-Flag and N100-Flag were mixed with the membrane vesicles solubilized in CHAPSO after DMSO or compounds were added. The mixture was incubated at 37°C for 4 hours. A. A dose-dependent inhibition of NICD generation by DAPT. Generation of NICD was detected by Western blot (WB) with antibody 1744 specifically recognizing N-terminus of NICD. B. Generation of NICD was inhibited in the presence of 100 nM of cpd E. C. Levels of NICD determined by WB were quantified by densitometry (dotted line). Levels of Aβ generated from the γ-secretase cleavage of C100 in the presence of DAPT were determined by ELISA (solid line). […] D. NICD (dotted line) and Aβ (solid line) generation in the presence of cpd E were compared.
The E. coli generated APP- and Notch-based, 100-residue γ-secretase substrates C100-Flag and N100-Flag were purified as previously described. C100-Flag substrate contains an initiating methionine, the 99 C-terminal residues of APP that start at the […], and a Flag tag. N100-Flag substrate contains a similar initiating methionine, 99 amino acids that start at the TACE cleavage site, and a Flag tag. The membrane vesicles were solubilized in 1% CHAPSO-HEPES and diluted in a final concentration of 0.2% CHAPSO-HEPES. Phosphatidylethanolamine (PE) and phosphatidylcholine (PC) were added to the final concentration of 0.02% PE and 0.08% PC. After adding DMSO or test compounds to the solubilized γ-secretase complex, substrate C100-Flag or N100-Flag was added to the mixture, then followed by incubation at 37°C for 4 hours. Two compounds have been used in this study, compound E (cpd E), {(S,S)-2-[2-(3,5-Difluorophenyl)-acetylamino]-N-(1-methyl-2-oxo-5-phenyl-2,3-dihydro-1H-benzo [e] [1,4] diazepin-3-yl)-propionamide} [57] and DAPT {N-[N-(3,5-Difluorophenacetyl-L-alanyl)]-S-phenylglycine t-Butyl Ester} [79]. Cpd E was provided by Dr. Michael Wolfe.

Compound | IC50 ([1]; read-out: concentration inhibiting levels of Aβ to 50% in cultured cells) | Aβ levels in cultured cells [1] | γ-secretase cleavage of Notch in vitro at low concentrations ([2]; 0.1 nM to 10 nM) | Notch cleavage reduced to, in vitro γ-secretase activity assay ([2]; 1 μM or higher) | NICD generation blocked in vitro ([2]; 10 and 100 μM) | NICD generation in vitro, dose response [2] | IC50 ([1]; IC50 for Aβ generation (levels of Aβ reduced to 50%) in cultured cells) | NICD generation in vitro ([2]; 100 nM (0.1 μM), compared to DMSO controls)
C[C@H](NC(=O)Cc1cc(F)cc(F)c1)C(=O)N[C@H](C(=O)OC(C)(C)C)c1ccccc1 [DAPT, N-[N-(3,5-Difluorophenacetyl-L-alanyl)]-S-phenylglycine t-Butyl Ester] | ~500 nM | efficiently reduced to almost undetectable levels | did not inhibit | about 50% | ~ 60% | clear reduction of NICD generation | – | –
C[C@H](NC(=O)Cc1cc(F)cc(F)c1)C(=O)N[C@H]1N=C(c2ccccc2)c2ccccc2N(C)C1=O [cpd E, (S,S)-2-[2-(3,5-Difluorophenyl)-acetylamino]-N-(1-methyl-2-oxo-5-phenyl-2,3-dihydro-1H-benzo [e] [1,4]diazepin-3-yl)-propionamide] | – | efficiently reduced to almost undetectable levels | – | – | – | clear reduction of NICD generation | ~8 nM and 5 nM | inhibited; also recorded: only minor reduction of NICD levels; also recorded: only had minor effect on Notch cleavage and NICD generation

— publication PMC2637266, “Quantification of gamma-secretase modulation differentiates inhibitor compound selectivity between two substrates Notch and amyloid precursor protein” (Molecular Brain, 2008)
